Data reported in the supplement of paper PMC3974653.
Structures can show the parent of a compound that is named as a salt.

Tested on: MTT (mouse pheochromocytoma)
Test: IC50 of cell viability (ATP content)
Conditions: (24 or 48 h)
In short: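 MTT mouse pheochromocytoma cells, cultured overnight at 37°C, 5% CO2 in DMEM with 5% FBS and 1% horse serum, were exposed in white 1536-well plates to library compounds in DMSO at final 0.5 nM to 46 µM (8 concentrations) for 24 or 48 hrs. CellTiter-Glo luminescence was normalised to positive-control (100%) and DMSO (0%) wells. A four-parameter logistic fit gave the IC50.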

| Compound | IC50 of cell viability |
| --- | --- |
| CCOC(=O)Nc1ccc2c(c1)N(C(=O)CCN1CCOCC1)c1ccccc1S2 [Moricizine hydrochloride] | > 46 µM |
| O=C(NCN1CCOCC1)c1cnccn1 [Morinamida] | > 46 µM |
| N=C(N)NC(=N)N1CCOCC1 [Moroxidine hydrochloride] | > 46 µM |
| CN1CC[C@@]23C4OC5=C(O)C=CC(=C25)C[C@@H]1C3\C=C/C4O (stereo not given in full) [Morphine] | > 46 µM |
| O=C1NC2CCCCN2C12CCN(CCCN1c3ccccc3CCc3ccc(Cl)cc31)CC2 (stereo not given) [Mosapramine] | > 46 µM |
| [Na+].[Na+].CO[C@@]1(NC(=O)[C@H](C([O-])=O)C2=CC=C(O)C=C2)[C@@H]3OC\C(=C(/N3C1=O)C([O-])=O)CSC4=NN=N[N]4C [Moxalactam disodium salt] | > 46 µM |
| CO/N=C1\C[C@]2(C[C@@H]3C[C@H](CC=C(C)C[C@@H](C)C=CC=C4CO[C@@H]5[C@@H](O)C(C)=C[C@@H](C(=O)O3)[C@]45O)O2)O[C@@H](/C(C)=C/C(C)C)[C@H]1C [Moxidectin] | > 46 µM |
| CO/N=C1/CC2(CC3CC(CC=C(C)CC(C)C=CC=C4COC5C(O)C(C)=CC(C(=O)O3)C45O)O2)OC(/C(C)=C/C(C)C)C1C (stereo not given) [Moxidectin] | > 46 µM |
| O.Cl.COC1=C2N(\C=C(C(O)=O)/C(=O)C2=CC(=C1N3C[C@@H]4CCCN[C@@H]4C3)F)C5CC5 [Moxifloxacin Hydrochloride Monohydrate] | > 46 µM |
| CC(=O)Oc1cc(C(C)C)c(OCCN(C)C)cc1C [Moxisylyte hydrochoride] | > 46 µM |
| COC1=NC(=NC(=C1N\C2=N\CCN2)Cl)C [Moxonidine] | > 46 µM |
| CCCCCCC(=O)CCCCCC/C=C/C[C@@H](O)[C@H](O)[C@@](N)(CO)C(=O)O [Myriocin from Mycelia sterilia] | > 46 µM |
| c1ccc(CNCCNCc2ccccc2)cc1 [N,N'-DIBENZYLETHYLENEDIAMMONIUM DI(ACETATE)] | > 46 µM |
| C=CC(=O)NCNC(=O)C=C [N,N'-Methylenebis(acrylamide)] | > 46 µM |
| CCN(CC)CCOc1ccc(Cc2ccccc2)cc1 [N,N-DIETHYL-2-[4-(PHENYLMETHYL)PHENOXY]ETHANAMINE] | > 46 µM |
| CCN(CC)CCc1c[nH]c2ccccc12 [N,N-Diethyltryptamine] | > 46 µM |
| C[N+](C)(CCOc1ccccc1)Cc1cccs1.O=S([O-])Oc1ccc(Cl)cc1 [N,N-Dimethyl-N-2-phenoxyethyl-N-2 Äô-thenylammoniu ...] | > 46 µM |
| CN(C)Cc1ccccc1 [N,N-Dimethylbenzylamine] | > 46 µM |
| CN(C)CCc1c[nH]c2ccccc12 [N,N-Dimethyltryptamine] | > 46 µM |
| CCCN(CCC)CCc1c[nH]c2ccccc12 [N,N-Dipropyltryptamine] | > 46 µM |
| NCCNc1cccc2ccccc12.[Cl-].[Cl-].[H+].[H+] [N-(1-Naphthyl)ethylenediamine 2HCl] | > 46 µM |
| CC(=O)N[C@@H](Cc1ccc(O)cc1)C(=O)O [N-ACETYL-TYROSINE] | > 46 µM |
| CCCCC/C=C\C/C=C\C/C=C\C/C=C\CCCC(=O)NCC(=O)O [N-ARACHIDONYLGLYCINE] | > 46 µM |
| CC(=O)Nc1ccc([S+](=O)([O-])Nc2cc(C)on2)cc1 [N-Acetyl Sulfamethoxazole] | > 46 µM |
| CC(=O)N[C@@H](C=O)[C@@H](O)[C@H](O)[C@H](O)CO [N-Acetylgalactosamine] | > 46 µM |
| NC(=O)N[C@@H](CCC(=O)O)C(=O)O [N-CARBAMYL-L-GLUTAMIC ACID] | > 46 µM |
| c1ccc2sc(SNC3CCCCC3)nc2c1 [N-CYCLOHEXYLBENZOTHIAZYLSULFENAMIDE] | > 46 µM |
| O=C1CCC(=O)N1CO [N-HYDROXYMETHYLSUCCINIMIDE] | > 46 µM |

| Compound | IC50 of cell viability |
| --- | --- |
| CC([C@H](O)c1ccccc1)N(C)C (stereo partly drawn) [N-METHYL (-)EPHEDRINE] | > 46 µM |
| CNCc1ccccc1.Cl [N-METHYLBENZYLAMINE HYDROCHLORIDE] | > 46 µM |
| CN1C(=O)c2ccccc2C1=O [N-Methylphthalimide] | > 46 µM |
| COC(=O)[C@@H](N)CCCNC(=N)N[N+](=O)[O-] [N-NITRO-ARGININE METHYL ESTER] | > 46 µM |
| COC1=C2OC3C(O)\C=C/C4[C@H]5CC(=C2[C@@]34CCN5)C=C1 (stereo not given in full) [N-Norcodeine] | > 46 µM |
| OC1\C=C/C2[C@H]3CC4=C5C(=C(O)C=C4)OC1[C@@]25CCN3 (stereo not given in full) [N-Normorphine] | > 46 µM |
| CC(=O)N[C@@H](CS)C(=O)O [N-acetylcysteine] | > 46 µM |
| N=C(N)Nc1ccc(C(=O)Oc2ccc3cc(C(=N)N)ccc3c2)cc1 [NAFAMOSTAT MESILATE] | > 46 µM |
| COc1ccccc1N1CCN(CC(O)COc2cccc3ccccc23)CC1 (stereo not given) [NAFTOPIDIL] | > 46 µM |
| Oc1ccc2c3c1O[C@H]1[C@@H](O)CC[C@@]4(O)C(C2)N(CC2CCC2)CCC314 (stereo not given in full) [NALBUPHINE] | > 46 µM |
| C=C1CC[C@@]2(O)[C@H]3Cc4ccc(O)c5c4[C@@]2(CCN3CC2CC2)[C@H]1O5 [NALMEFENE HYDROCHLORIDE] | > 46 µM |
| O[C@H]1\C=C/[C@H]2[C@H]3CC4=C5C(=C(O)C=C4)O[C@@H]1[C@@]25CCN3CC=C [NALORPHINE HYDROCHLORIDE] | > 46 µM |
| C=CC[N+]1(C)CCC23c4c5ccc(O)c4O[C@H]2C(=O)CC[C@@]3(O)C1C5 (stereo not given in full) [NALOXONE METHIODIDE] | > 46 µM |
| C=CCN1CCC23c4c5ccc(O)c4O[C@H]2C(=O)CC[C@@]3(O)C1C5 (stereo not given in full) [NALOXONE] | > 46 µM |
| O=C1CC[C@@]2(O)C3Cc4ccc(O)c5c4C2(CCN3CC2CC2)[C@H]1O5 (stereo not given in full) [NALTREXONE] | > 46 µM |
| c1ccc2c(CC3=NCCN3)cccc2c1 [NAPHAZOLINE] | > 46 µM |
| COc1ccc2cc(C(C)CO)ccc2c1 (stereo not given) [NAPROXOL] | > 46 µM |
| CC(C)C1CCC(C(=O)NC(Cc2ccccc2)C(=O)O)CC1 (stereo not given) [NATEGLINIDE] | > 46 µM |
| CCCCC(CC)COS(=O)(=O)[O-] (stereo not given) [NATRII ETASULFAS] | > 46 µM |
| O=C([O-])/C=C/C(O)c1ccc(Cl)cc1.[Na+] (stereo not given) [NCS-356] | > 46 µM |
| [NH2][Pt]1([NH2])[O]CC(=O)[O]1 [NEDAPLATIN] | > 46 µM |
| COc1nc(N)nc2c1ncn2C1OC(CO)C(O)C1O (stereo not given) [NELARABINE] | > 46 µM |
| CN(C)C(=O)Oc1cccc([N+](C)(C)C)c1 [NEOSTIGMINE] | > 46 µM |
| CCCCc1cc2c(=O)c(C(=O)OC)c[nH]c2cc1OCc1ccccc1 [NEQUINATE] | > 46 µM |
| C=CC(C)(O)CC/C=C(\C)CCC=C(C)C (stereo not given) [NEROLIDOL] | > 46 µM |
| CNC(=N)NCCC[C@H](N)C(=O)O [NG-Monomethyl-L-arginine acetate] | > 46 µM |
| CC(=O)O.CNC(=N)NCCC[C@H](N)C(=O)O [NG-Monomethyl-L-arginine acetate] | > 46 µM |
